Measured values as given in patent US20220257595A1, “MACITENTAN FOR USE IN TREATING PORTOPULMONARY HYPERTENSION” (ACTELION PHARMACEUTICALS LTD, priority 2019, published 2022).
Where “and” joins values, the source holds several entries; their conditions need not be identical. Equal entries are not always repeated.

System: patients with PoPH
Experiment: PORTICO safety: treatment-emergent AEs, SAEs, AESIs, deaths, discontinuations
Type: in vivo
Text: For the evaluation of treatment-emergent safety endpoints in the DB phase, the observation period for each individual subject started at the time of the first administration of macitentan or placebo and ended with the start of OL treatment or 30 days after DB treatment discontinuation (whichever occurred first). The safety variables listed below apply to the DB treatment-emergent period and the macitentan treatment-emergent period. The DB treatment-emergent period was defined as the period from the DB treatment start date up to the EOT-DB+30 days or to the EOT-DB for patients entering OL. The macitentan treatment-emergent period was defined as the period from the first intake of macitentan up to end of macitentan treatment (EOMT)+30 days. EOMT was defined as EOT-DB (for patient who received macitentan only in the DB period) or EOT-OL when applicable. For patients entering OLE, the EOMT is EOT-OL. • Treatment-emergent AEs • Treatment-emergent deaths • Treatment-emergent serious adverse events (SAEs) • AEs leading to premature discontinuation of study treatment • Occurrence of post-baseline LFT (ALT and/or AST) abnormalities, classified as: • ≥3×ULN; • ≥5×ULN; • ≥8×ULN; • ≥3×ULN and <5×ULN; • […] and <8×ULN. • Occurrence of post-baseline ALT and/or AST abnormality 3×ULN and concomitant (i.e., at the same time) total bilirubin ≥2×ULN • Occurrence of post-baseline ALT and/or AST abnormality ≥3×ULN and concomitant (i.e., at the same time) total bilirubin ≥2×ULN and increased as compared to baseline • Occurrence of hemoglobin abnormalities, classified as: • ≤80 g/L, • >80 and ≤100 g/L, • decrease from baseline ≥20 g/L and <50 g/L, • decrease from baseline ≥50 g/L, • <100 g/L and concurrent (i.e., at the same time) decrease from baseline ≥20 g/L. • Other treatment-emergent marked laboratory abnormalities • Change from baseline/macitentan baseline to EOT-DB/EOMT in vital signs • Change from baseline/macitentan baseline to EOT-DB/EOMT in laboratory variables • Change from baseline/macitentan baseline to EOT-DB/EOMT in Child-Pugh classification • Change from baseline/macitentan baseline to EOT-DB/EOMT in MELD score
(i) Adverse events: All AEs occurring after study start (i.e., signing of informed consent) and up to 30 days after study treatment discontinuation were required to be recorded. AEs still ongoing more than 30 days after study treatment discontinuation were required to be followed up until they were no longer considered clinically relevant.
(ii) Serious adverse events, including associated with study design or protocol-mandated procedures: During the screening period, all SAEs occurring after study start (i.e., signing of informed consent) were required to be recorded (whether considered associated or not associated to study design or study-mandated procedures). All SAEs, regardless of investigator-attributed causal relationship, occurring during the treatment period up to the end of the 30-day follow up period, were required to be reported. SAEs still ongoing at the EOS visit were required to be followed up until resolution or stabilization, or until the event outcome was provided, e.g., death. New SAEs occurring after the 30-day follow-up period were required to be reported within 24 hours.
In addition, the following adverse events of special interest (AESIs) were analyzed: • “Edema and fluid retention”
Any treatment-emergent AE with PT listed in the Standardised MedDRA Query (SMQ) “Haemodynamic oedema, effusions and fluid overload (SMQ)” or with PT equal to “Pulmonary congestion” defined in the latest available MedDRA version, with the exception of PTs containing “site”. • “Anemia”

[1] = macitentan DB + OL phase, Macitentan treated set, N = 84
[2] = macitentan DB+OL phase, MTS N=84

CCCNS(=O)(=O)Nc1ncnc(OCCOc2ncc(Br)cn2)c1-c1ccc(Br)cc1 [macitentan, N-[5-(4-Bromophenyl)-6-[2-[(5-bromo-2-pyrimidinyl)oxy]ethoxy]-4-pyrimidinyl]-N′-propylsulfamide]
AEs of special interest Hepatic disorders, Blood bilirubin increased [1]: 1 (1.2) n (%) | AEs of special interest Hepatic disorders, Hepatocellular carcinoma [1]: 1 (1.2) n (%) | AEs of special interest Hepatic disorders, Jaundice [1]: 1 (1.2) n (%) | AEs of special interest Hepatic disorders, Liver function test abnormal [1]: 1 (1.2) n (%) | AEs of special interest Hepatic disorders, Liver function test increased [1]: 1 (1.2) n (%) | AEs of special interest Hepatic disorders, Portal hypertensive gastropathy [1]: 1 (1.2) n (%) | AEs of special interest Hepatic disorders, Portopulmonary hypertension [1]: 1 (1.2) n (%) | AEs of special interest Hepatic disorders, Subjects with atleast one AE [1]: 13 (15.5) n (%) | AEs of special interest Hepatic disorders, Total bile acids increased [1]: 2 (2.4) n (%) | AEs of special interest Hepatic disorders, Varices oesophageal [1]: 1 (1.2) n (%) | Subjects with at least one AE [1]: 74 (88.1) n (%) | Subjects with at least one SAE [1]: 25 (29.8) n(%) | Treatment-emergent AE, Abdominal pain [1]: 4 (4.8) n (%) | Treatment-emergent AE, Acute kidney injury [1]: 3 (3.6) n (%) | Treatment-emergent AE, Anaemia [1]: 12 (14.3) n (%) | Treatment-emergent AE, Arthralgia [1]: 3 (3.6) n (%) | Treatment-emergent AE, Ascites [1]: 4 (4.8) n (%) | Treatment-emergent AE, Asthenia [1]: 4 (4.8) n (%) | Treatment-emergent AE, Bronchitis [1]: 8 (9.5) n (%) | Treatment-emergent AE, Dizziness [1]: 7 (8.3) n (%) | Treatment-emergent AE, Dyspnoea [1]: 4 (4.8) n (%) | Treatment-emergent AE, Dyspnoea exertional [1]: 3 (3.6) n (%) | Treatment-emergent AE, Fall [1]: 3 (3.6) n (%) | Treatment-emergent AE, Haemoglobin decreased [1]: 6 (7.1) n (%) | Treatment-emergent AE, Headache [1]: 16 (19.0) n (%) | Treatment-emergent AE, Hepatic encephalopathy [1]: 4 (4.8) n (%) | Treatment-emergent AE, Hypokalaemia [1]: 3 (3.6) n (%) | Treatment-emergent AE, Hypotension [1]: 4 (4.8) n (%) | Treatment-emergent AE, Influenza like illness [1]: 3 (3.6) n (%) | Treatment-emergent AE, Iron deficiency anaemia [1]: 3 (3.6) n (%) | Treatment-emergent AE, Muscle spasms [1]: 3 (3.6) n (%) | Treatment-emergent AE, Nausea [1]: 4 (4.8) n (%) | Treatment-emergent AE, Oedema peripheral [1]: 23 (27.4) n (%) | Treatment-emergent AE, Pain in extremity [1]: 7 (8.3) n (%) | Treatment-emergent AE, Pruritus [1]: 3 (3.6) n (%) | Treatment-emergent AE, Pulmonary arterial hypertension [1]: 3 (3.6) n (%) | Treatment-emergent AE, Rash [1]: 3 (3.6) n (%) | Treatment-emergent AE, Rhinitis [1]: 5 (6.0) n (%) | Treatment-emergent AE, Right ventricular failure [1]: 6 (7.1) n (%) | Treatment-emergent AE, Urinary tract infection [1]: 3 (3.6) n (%) | Treatment-emergent AE, Viral upper respiratory tract infection [1]: 4 (4.8) n (%) | Treatment-emergent AE, Vomiting [1]: 3 (3.6) n (%) | Treatment-emergent SAE, Abdominal pain [1]: 1 (1.2) n(%) | Treatment-emergent SAE, Acute kidney injury [1]: 2 (2.4) n(%) | Treatment-emergent SAE, Alveolitis [1]: 1 (1.2) n(%) | Treatment-emergent SAE, Anaemia [1]: 2 (2.4) n(%) | Treatment-emergent SAE, Ascites [1]: 2 (2.4) n(%) | Treatment-emergent SAE, Asthma [1]: 1 (1.2) n(%) | Treatment-emergent SAE, Atrial fibrillation [1]: 1 (1.2) n(%) | Treatment-emergent SAE, Bronchitis [1]: 1 (1.2) n(%) | Treatment-emergent SAE, Chronic kidney disease [1]: 1 (1.2) n(%) | Treatment-emergent SAE, Fall [1]: 1 (1.2) n(%) | Treatment-emergent SAE, Fluid overload [1]: 1 (1.2) n(%) | Treatment-emergent SAE, Gastrointestinal haemorrhage [1]: 1 (1.2) n(%) | Treatment-emergent SAE, Haemoptysis [1]: 1 (1.2) n(%) | Treatment-emergent SAE, Hepatic encephalopathy [1]: 3 (3.6) n(%) | Treatment-emergent SAE, Hepatocellular carcinoma [1]: 1 (1.2) n(%) | Treatment-emergent SAE, Humerus fracture [1]: 1 (1.2) n(%) | Treatment-emergent SAE, Hypersensitivity [1]: 1 (1.2) n(%) | Treatment-emergent SAE, Ileus [1]: 1 (1.2) n(%) | Treatment-emergent SAE, Intervertebral disc protrusion [1]: 1 (1.2) n(%) | Treatment-emergent SAE, Iron deficiency anaemia [1]: 1 (1.2) n(%) | Treatment-emergent SAE, Left ventricular failure [1]: 1 (1.2) n(%) | Treatment-emergent SAE, Liver function test increased [1]: 1 (1.2) n(%) | Treatment-emergent SAE, Localised oedema [1]: 1 (1.2) n(%) | Treatment-emergent SAE, Lung infection [1]: 1 (1.2) n(%) | Treatment-emergent SAE, Malignant ascites [1]: 1 (1.2) n(%) | Treatment-emergent SAE, Melaena [1]: 2 (2.4) n(%) | Treatment-emergent SAE, Oedema peripheral [1]: 2 (2.4) n(%) | Treatment-emergent SAE, Osteitis [1]: 1 (1.2) n(%) | Treatment-emergent SAE, Pneumonia [1]: 1 (1.2) n(%) | Treatment-emergent SAE, Presyncope [1]: 1 (1.2) n(%) | Treatment-emergent SAE, Priapism [1]: 1 (1.2) n(%) | Treatment-emergent SAE, Pulmonary arterial hypertension [1]: 2 (2.4) n(%) | Treatment-emergent SAE, Pulmonary toxicity [1]: 1 (1.2) n(%) | Treatment-emergent SAE, Right ventricular failure [1]: 4 (4.8) n(%) | Treatment-emergent SAE, Staphylococcal infection [1]: 1 (1.2) n(%) | Treatment-emergent SAE, Subdural haematoma [1]: 1 (1.2) n(%) | Treatment-emergent SAE, Syncope [1]: 1 (1.2) n(%) | Treatment-emergent SAE, Thrombocytopenia [1]: 1 (1.2) n(%) | Treatment-emergent SAE, Tinnitus [1]: 1 (1.2) n(%) | Treatment-emergent SAE, Troponin I increased [1]: 1 (1.2) n(%) | Treatment-emergent SAE, Urosepsis [1]: 1 (1.2) n(%) | Anemia AEs reported as SAEs (macitentan DB+OL phase): 2 and 3 | Patients who discontinued treatment due to AEs (macitentan DB+OL phase): 10 patients | Patients who had an SAE (macitentan DB+OL phase): 29.8% | Patients with edema and fluid retention AEs reported as serious (macitentan DB+OL phase): 2 patients | Patients with hepatic disorder AEs reported as SAEs (macitentan DB+OL phase): 5 patients | Peripheral edema leading to discontinuation of treatment (macitentan DB+OL phase): 2 patients | Patients with hepatic disorder AEs (macitentan DB+OL phase (13 patients)): 15.5% | Patients with anemia AEs (macitentan DB+OL phase (22 patients)): 26.2% | Patients with edema and fluid retention AEs (macitentan DB+OL phase (26 patients)): 31.0% | Decreased hemoglobin considered related to study treatment (macitentan DB+OL phase, 3 patients): 3.6% | Most frequent severe AEs (peripheral edema, right ventricular failure, acute kidney injury), each (macitentan DB+OL phase, 3 patients each): 3.6% | Anemia considered related to study treatment (macitentan DB+OL phase, 4 patients): 4.8% | Peripheral edema considered related to study treatment (macitentan DB+OL phase, 10 patients): 11.9% | Headache considered related to study treatment (macitentan DB+OL phase, 11 patients): 13.1% | Patients with AEs of severe intensity (macitentan DB+OL phase, 19 patients): 22.6% | Subjects with AE leading to study drug discontinuation [2]: 10 (11.9) n (%) | Subjects with Drug-Related AE [2]: 33 (39.3) n (%) | Subjects with Drug-Related serious AE [2]: 8 (9.5) n (%) | Subjects with Fatal serious AE [2]: 4 (4.8) n (%) | Subjects with Serious AE [2]: 25 (29.8) n (%) | Subjects with Severe AE [2]: 19 (22.6) n (%) | Subjects with at least one AE (macitentan DB+OL phase, Macitentan treated set N=84): 74 (88.1) n (%) | Overall safety and tolerability (patients with PoPH and mild or moderate liver impairment): good safety profile and is well tolerated
